According to ChEMBL document CHEMBL5120836, “Discovery of novel 7,8-dihydropteridine-6(5H)-one-based DNA-PK inhibitors as potential anticancer agents via scaffold hopping strategy” (Eur J Med Chem, 2022):
In brackets after ≈: the same amount, converted by molar mass. Activity calls are given as the source filed them. No cut-off for these calls is given here.

Experiments:
[1] = molecular target: DNA-dependent protein kinase catalytic subunit (Homo sapiens, UniProt P78527); experiment: Inhibition of human native full length DNA-PK by ADP-Glo assay
DNA-dependent protein kinase catalytic subunit, sequence (P78527 whole entry): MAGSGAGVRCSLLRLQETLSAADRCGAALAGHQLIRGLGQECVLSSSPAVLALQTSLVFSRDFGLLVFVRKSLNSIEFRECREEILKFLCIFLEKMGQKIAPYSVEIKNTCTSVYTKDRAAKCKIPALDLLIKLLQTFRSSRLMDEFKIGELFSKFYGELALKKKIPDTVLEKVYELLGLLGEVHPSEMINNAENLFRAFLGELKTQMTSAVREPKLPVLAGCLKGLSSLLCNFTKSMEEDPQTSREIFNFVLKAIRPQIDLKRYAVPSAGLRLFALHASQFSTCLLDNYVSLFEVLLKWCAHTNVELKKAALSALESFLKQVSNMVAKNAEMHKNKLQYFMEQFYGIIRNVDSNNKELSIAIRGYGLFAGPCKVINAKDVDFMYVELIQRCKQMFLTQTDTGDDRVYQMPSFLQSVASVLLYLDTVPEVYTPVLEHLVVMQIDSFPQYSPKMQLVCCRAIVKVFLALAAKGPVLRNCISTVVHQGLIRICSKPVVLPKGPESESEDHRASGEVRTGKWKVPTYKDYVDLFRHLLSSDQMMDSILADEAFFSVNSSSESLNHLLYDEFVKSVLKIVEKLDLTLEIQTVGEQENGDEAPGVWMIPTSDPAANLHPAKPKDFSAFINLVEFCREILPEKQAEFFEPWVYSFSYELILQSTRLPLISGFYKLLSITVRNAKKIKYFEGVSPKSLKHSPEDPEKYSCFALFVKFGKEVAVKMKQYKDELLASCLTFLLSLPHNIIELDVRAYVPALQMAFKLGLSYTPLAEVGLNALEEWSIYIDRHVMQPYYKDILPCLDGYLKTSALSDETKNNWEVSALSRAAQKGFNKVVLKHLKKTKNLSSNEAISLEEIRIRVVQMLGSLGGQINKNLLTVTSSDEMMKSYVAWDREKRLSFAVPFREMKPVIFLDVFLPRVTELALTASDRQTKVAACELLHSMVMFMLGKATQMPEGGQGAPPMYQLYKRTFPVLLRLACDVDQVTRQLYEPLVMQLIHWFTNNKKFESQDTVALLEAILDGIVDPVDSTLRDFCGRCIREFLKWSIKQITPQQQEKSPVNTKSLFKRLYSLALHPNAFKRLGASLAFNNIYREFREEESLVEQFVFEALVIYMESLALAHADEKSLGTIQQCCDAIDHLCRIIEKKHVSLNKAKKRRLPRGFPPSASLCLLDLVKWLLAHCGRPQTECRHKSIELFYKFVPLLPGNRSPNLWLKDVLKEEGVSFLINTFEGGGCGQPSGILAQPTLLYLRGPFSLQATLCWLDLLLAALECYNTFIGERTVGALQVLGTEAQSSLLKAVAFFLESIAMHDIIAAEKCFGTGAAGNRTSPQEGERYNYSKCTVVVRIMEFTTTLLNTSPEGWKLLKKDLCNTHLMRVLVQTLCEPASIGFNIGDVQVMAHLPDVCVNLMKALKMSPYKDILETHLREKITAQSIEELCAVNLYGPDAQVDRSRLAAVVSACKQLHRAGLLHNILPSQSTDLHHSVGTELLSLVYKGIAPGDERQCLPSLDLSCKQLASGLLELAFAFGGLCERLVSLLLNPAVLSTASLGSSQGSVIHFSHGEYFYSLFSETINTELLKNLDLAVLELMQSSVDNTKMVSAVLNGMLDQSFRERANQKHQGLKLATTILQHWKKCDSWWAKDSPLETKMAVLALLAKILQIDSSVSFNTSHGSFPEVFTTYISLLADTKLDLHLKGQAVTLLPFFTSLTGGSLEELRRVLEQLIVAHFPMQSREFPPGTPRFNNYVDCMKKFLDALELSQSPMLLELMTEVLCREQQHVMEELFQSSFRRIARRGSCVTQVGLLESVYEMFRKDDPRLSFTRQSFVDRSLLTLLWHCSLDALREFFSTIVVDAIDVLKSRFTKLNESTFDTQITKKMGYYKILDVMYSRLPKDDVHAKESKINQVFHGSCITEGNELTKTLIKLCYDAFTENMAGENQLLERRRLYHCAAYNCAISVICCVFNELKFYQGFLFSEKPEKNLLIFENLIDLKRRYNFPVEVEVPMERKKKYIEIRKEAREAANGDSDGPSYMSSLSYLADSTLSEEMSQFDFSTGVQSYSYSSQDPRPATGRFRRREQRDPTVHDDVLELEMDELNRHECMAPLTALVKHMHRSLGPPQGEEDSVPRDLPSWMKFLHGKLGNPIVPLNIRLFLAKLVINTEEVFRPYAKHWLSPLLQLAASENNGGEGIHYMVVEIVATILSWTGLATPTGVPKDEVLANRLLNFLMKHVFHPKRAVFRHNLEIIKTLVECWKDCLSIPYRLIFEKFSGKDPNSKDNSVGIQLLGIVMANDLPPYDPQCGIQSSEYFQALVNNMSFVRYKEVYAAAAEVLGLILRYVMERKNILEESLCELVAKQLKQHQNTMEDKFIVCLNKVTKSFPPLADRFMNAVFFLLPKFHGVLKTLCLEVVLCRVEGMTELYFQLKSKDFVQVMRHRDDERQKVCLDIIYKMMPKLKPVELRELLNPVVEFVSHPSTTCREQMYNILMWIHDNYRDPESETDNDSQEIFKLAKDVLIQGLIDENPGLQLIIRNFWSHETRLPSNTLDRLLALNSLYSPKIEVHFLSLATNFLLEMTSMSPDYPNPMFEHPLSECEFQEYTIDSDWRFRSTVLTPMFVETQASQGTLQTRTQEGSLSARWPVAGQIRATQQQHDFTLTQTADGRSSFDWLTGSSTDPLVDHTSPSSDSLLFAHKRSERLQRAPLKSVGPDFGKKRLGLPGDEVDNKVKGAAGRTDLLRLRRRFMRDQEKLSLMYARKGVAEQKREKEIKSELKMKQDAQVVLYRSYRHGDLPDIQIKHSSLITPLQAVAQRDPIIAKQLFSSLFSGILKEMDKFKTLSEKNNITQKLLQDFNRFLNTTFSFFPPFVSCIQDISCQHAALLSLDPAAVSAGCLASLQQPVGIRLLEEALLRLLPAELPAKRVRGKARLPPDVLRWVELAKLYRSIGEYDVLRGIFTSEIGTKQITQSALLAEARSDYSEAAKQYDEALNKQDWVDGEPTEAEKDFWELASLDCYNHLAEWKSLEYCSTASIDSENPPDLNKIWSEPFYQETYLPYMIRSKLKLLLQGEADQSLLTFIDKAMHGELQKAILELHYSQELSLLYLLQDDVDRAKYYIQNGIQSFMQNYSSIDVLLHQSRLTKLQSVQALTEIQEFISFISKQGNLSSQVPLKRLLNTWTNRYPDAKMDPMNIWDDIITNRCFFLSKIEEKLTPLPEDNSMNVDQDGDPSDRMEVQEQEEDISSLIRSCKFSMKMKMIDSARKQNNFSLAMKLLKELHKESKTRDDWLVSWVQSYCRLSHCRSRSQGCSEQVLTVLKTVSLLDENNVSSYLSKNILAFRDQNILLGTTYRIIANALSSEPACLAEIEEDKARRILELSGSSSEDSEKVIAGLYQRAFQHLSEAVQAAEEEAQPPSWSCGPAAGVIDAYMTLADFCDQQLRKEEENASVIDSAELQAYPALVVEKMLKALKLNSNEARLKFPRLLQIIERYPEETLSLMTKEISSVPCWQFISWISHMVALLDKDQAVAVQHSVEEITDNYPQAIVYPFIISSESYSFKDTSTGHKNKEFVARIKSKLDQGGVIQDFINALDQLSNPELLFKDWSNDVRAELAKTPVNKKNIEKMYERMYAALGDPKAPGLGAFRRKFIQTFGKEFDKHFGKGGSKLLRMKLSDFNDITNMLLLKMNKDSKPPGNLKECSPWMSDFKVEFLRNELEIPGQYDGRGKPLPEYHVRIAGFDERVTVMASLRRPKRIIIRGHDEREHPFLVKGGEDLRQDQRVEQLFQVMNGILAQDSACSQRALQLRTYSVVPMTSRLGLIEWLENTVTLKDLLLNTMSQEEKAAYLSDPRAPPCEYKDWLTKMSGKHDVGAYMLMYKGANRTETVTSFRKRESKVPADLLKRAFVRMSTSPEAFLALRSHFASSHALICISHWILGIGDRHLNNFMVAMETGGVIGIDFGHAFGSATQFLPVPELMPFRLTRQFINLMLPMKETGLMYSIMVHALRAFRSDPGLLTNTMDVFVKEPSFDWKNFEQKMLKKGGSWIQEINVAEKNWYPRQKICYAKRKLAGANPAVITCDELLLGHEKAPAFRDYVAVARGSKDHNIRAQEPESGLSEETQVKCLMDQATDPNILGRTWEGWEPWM

[2] = system: HCT-116; experiment: Induction of apoptosis in human HCT-116 cells assessed as early apoptotic cells at 1 uM incubated for 24 hrs in presence of 100 nM doxorubicin by AnnexinV-FITC/PI staining based flow cytometry (reference value: 3.04%); format: functional
[3] = system: HCT-116; experiment: Induction of apoptosis in human HCT-116 cells assessed as viable cells at 1 uM incubated for 24 hrs in presence of 100 nM doxorubicin by AnnexinV-FITC/PI staining based flow cytometry (reference value: 93.9%); format: functional; settings: read-out: Activity
[4] = system: HCT-116; experiment: Synergistic antiproliferative activity against human HCT-116 cells assessed as combination index at 1 uM in presence of 100 nM doxorubicin by MTT assay; format: functional
[5] = system: HCT-116; experiment: Antiproliferative activity against human HCT-116 cells assessed as inhibition of cell growth incubated for 48 hrs by MTT assay; format: functional, cell-based; settings: HCT-116, 48 h
[6] = system: HCT-116; experiment: Antiproliferative activity against human HCT-116 cells assessed as inhibition of cell growth incubated for 48 hrs in presence of 100 nM doxorubicin by MTT assay; format: functional, cell-based; settings: HCT-116, 48 h
[7] = system: HCT-116; experiment: Induction of apoptosis in human HCT-116 cells assessed as viable cells at 1 uM incubated for 24 hrs by AnnexinV-FITC/PI staining based flow cytometry (reference value: 93.9%); format: functional; settings: read-out: Activity
[8] = system: HCT-116; experiment: Disruption of mitochondrial function in human HCT-116 cells assessed as decrease in mitochondrial membrane potential by measuring proportion of cells with green fluorescence at 1 uM incubated for 24 hrs by JC-1 staining based flow cytometry (reference value: 0.566%); format: functional; design: scale not given: the % may be the effect or the level left
[9] = system: HCT-116; experiment: Disruption of mitochondrial function in human HCT-116 cells assessed as decrease in mitochondrial membrane potential by measuring proportion of cells with red fluorescence at 1 uM incubated for 24 hrs by JC-1 staining based flow cytometry (reference value: 99.4%); format: functional; design: scale not given: the % may be the effect or the level left
[10] = system: HCT-116; experiment: Induction of apoptosis in human HCT-116 cells assessed as early apoptotic cells at 1 uM incubated for 24 hrs by AnnexinV-FITC/PI staining based flow cytometry (reference value: 3.04%); format: functional
[11] = system: HCT-116; experiment: Induction of apoptosis in human HCT-116 cells assessed as late apoptotic cells at 1 uM incubated for 24 hrs by AnnexinV-FITC/PI staining based flow cytometry (reference value: 3.07%); format: functional
[12] = system: HCT-116; experiment: Induction of apoptosis in human HCT-116 cells assessed as necrotic cells at 1 uM incubated for 24 hrs by AnnexinV-FITC/PI staining based flow cytometry (reference value: 0.031%); format: functional
[13] = system: HCT-116; experiment: Induction of apoptosis in human HCT-116 cells assessed as late apoptotic cells at 1 uM incubated for 24 hrs in presence of 100 nM doxorubicin by AnnexinV-FITC/PI staining based flow cytometry (reference value: 3.07%); format: functional
[14] = system: HCT-116; experiment: Induction of apoptosis in human HCT-116 cells assessed as necrotic cells at 1 uM incubated for 24 hrs in presence of 100 nM doxorubicin by AnnexinV-FITC/PI staining based flow cytometry (reference value: 0.031%); format: functional
[15] = system: HCT-116; experiment: Induction of cell cycle arrest in human HCT-116 cells assessed as increase in accumulation of cells at […] at 1 uM incubated for 24 hrs in presence of 100 nM doxorubicin by PI staining based flow cytometry; format: functional
[16] = system: HCT-116; experiment: Induction of cell cycle arrest in human HCT-116 cells assessed as increase in accumulation of cells at G2/M phase at 1 uM incubated for 24 hrs in presence of 100 nM doxorubicin by PI staining based flow cytometry; format: functional
[17] = Lipophilicity, logP of the compound; format: physicochemical; settings: octanol/water
[18] = Kinetic solubility of the compound in phosphate-buffered solution at pH 7.4 incubated for 24 hrs by HPLC-MS/MS analysis; format: physicochemical; settings: phosphate buffer, read-out: Kinetic_solubility
[19] = Kinetic solubility of the compound in phosphate-buffered solution at pH 6.4 incubated for 24 hrs by HPLC-MS/MS analysis; format: physicochemical; settings: phosphate buffer, read-out: Kinetic_solubility
[20] = Plasma protein binding in rat assessed as free fraction; format: ADME, cell-free
[21] = Plasma protein binding in human assessed as free fraction; format: ADME, cell-free
[22] = Tmax in Sprague-Dawley rat at 5 mg/kg, po; format: ADME, organism-based; settings: in vivo
[23] = Cmax in Sprague-Dawley rat at 5 mg/kg, po; format: ADME, organism-based; design: dose 5 mg/kg, route po; settings: in vivo
[24] = AUC (0 to infinity) in Sprague-Dawley rat at 5 mg/kg, po; format: ADME, organism-based; design: time infinity, dose 5 mg/kg, route po; settings: in vivo
[25] = MRT (0 to infinity) in Sprague-Dawley rat at 5 mg/kg, po; format: ADME, organism-based; settings: in vivo
[26] = system: HL-60; experiment: Synergistic antitumor activity against human HL-60 cells xenografted in BALB/c nude mouse assessed as tumor weight at 100 mg/kg, po qd for 16 days co-administered with doxorubicin (reference value: 27.9%); format: functional; settings: HL-60, 384 h, time 16 day
[27] = system: HL-60; experiment: Synergistic antitumor activity against human HL-60 cells xenografted in BALB/c nude mouse assessed as tumor volume at 100 mg/kg, po qd for 16 days co-administered with doxorubicin (reference value: 32.2%); format: functional; settings: HL-60, 384 h, time 16 day
[28] = Toxicity in BALB/c nude mouse xenografted with human HL-60 cells assessed as effect on body weight at 100 mg/kg, po qd for 16 days; format: organism-based; settings: in vivo, 384 h, time 16 day
[29] = Toxicity in BALB/c nude mouse xenografted with human HL-60 cells assessed as effect on body weight at 100 mg/kg, po qd for 16 days co-administered with doxorubicin; format: organism-based; settings: in vivo, 384 h, time 16 day

Work on `Cc1cc2nccnc2cc1Nc1ncc2c(n1)N(C1CCOCC1)CC(=O)N2C` yielded an IC50 [1] of 0.00326 µM.
With `Cc1cc2ncccc2cc1Nc1ncc2c(n1)N(C1CCOCC1)CC(=O)N2C` the IC50 [1] was 0.0069 µM.
With `CCN1C(=O)CN(C2CCOCC2)c2nc(Nc3cn4ncnc4cc3C)ncc21` the IC50 [1] was 0.00337 µM.
Compound `Cc1cc2ncccc2cc1Nc1ncc2c(n1)C1(CCOCC1)C(=O)N2C` has an IC50 [1] of 0.0105 µM.
`Cc1cc2ncnn2cc1Nc1ncc2c(n1)N(C1CCOCC1)CC(=O)N2C(C)C` showed an IC50 [1] of 0.0255 µM.
With `Cc1cc2ncnn2cc1Nc1ncc2c(n1)n(C1CCOCC1)c(=O)n2C` [AZD-7648] the Activity [2] was 10.3%, the viability at 1 µM [3] was 82.3% and the CI [4] was 0.79. It also gave an IC50 [5] of 35.3 µM, an IC50 [6] of 19.5 µM and a viability at 1 µM [7] of 92.7%. The Activity [8] was 7.64%, the Activity [9] was 92.2% and the Activity [10] was 2.76%. For the same compound, the Activity [11] was 4.53%, the Activity [12] was 0.05% and the Activity [13] was 7.33%. For the same compound, the Activity [14] was 0.102%, the Activity [15] was “Active” and the Activity [16] was 64.46%. For the same compound, the logP [17] was 1.2, the solubility kinetic at 24 h [18] was 120 µg/mL (≈ 316 µM) and the solubility kinetic at 24 h [19] was 101 µg/mL (≈ 266 µM). The fraction unbound [20] was 0.653, the fraction unbound [21] was 0.834 and the Tmax [22] was 0.83 h. It also gave a Cmax [23] of 1500 ng/mL, an AUC(0-inf) [24] of 5240 ng·h/mL and an MRT inf [25] of 2.51 h. For the same compound, the inhibition in vivo at 100 mg/kg [26] was 55.3%, the inhibition in vivo at 100 mg/kg [27] was 68.1% and the Activity [28] was “Non-Toxic”. The Activity [29] was “Non-Toxic”.
`Cc1cc2ncnn2cc1Nc1ncc2c(n1)C1(CCC(OCC(F)F)CC1)C(=O)N2C` (stereo unspecified) gave an IC50 [1] of 0.0169 µM.
`CCN1C(=O)C2(CCOCC2)c2nc(Nc3cn4ncnc4cc3C)ncc21` showed an IC50 [1] of 0.135 µM.
Work on `Cc1cc2ncnn2cc1Nc1ncc2c(n1)C(C)(C)C(=O)N2C` yielded an IC50 [1] of 0.0479 µM.
Compound `[2H]C([2H])([2H])N1C(=O)C2(CCOCC2)c2nc(Nc3cn4ncnc4cc3C)ncc21` has an IC50 [1] of 0.127 µM.
For `Cc1cc2ncnn2cc1Nc1ncc2c(n1)C1(CCC1)C(=O)N2C`, the IC50 [1] was 0.0214 µM.
For `Cc1cc2ncnn2cc1Nc1ncc2c(n1)C1(CCOCC1)C(=O)N2C(C)C`, the IC50 [1] was 0.22 µM.
With `Cc1cc2ncnn2cc1Nc1ncc2c(n1)N(C1CCOCC1)CC(=O)N2C1CC1` the IC50 [1] was 0.00676 µM.
`Cc1cc2ncnn2cc1Nc1ncc2c(n1)N(C1CCOCC1)CC(=O)N2` showed an IC50 [1] of 0.00706 µM.
